IC50 data for 14 compounds are collected here from patent US8846694B2, “Pyrrolidone derivatives for use as MetAP-2 inhibitors” (Merck Patent GmbH, priority 2008, dated 2014).

A value given as a limit tells only on which side of the number the result lay.

The target of this assay is MetAP-2 (Homo sapiens, UniProt P50579). Put plainly: MetAP-2 activity measurement (coupled enzymatic reactions, substrate Met-Arg-Ser, photometric at 450 nm). Format: biochemical. Particulars: read-out: IC50 enzyme (Inhibition of MetAP-2). A digest of the protocol: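 Human MetAP-2 cleaves Met-Arg-Ser; the freed methionine is oxidized by L-amino acid oxidase, and the resulting H2O2 drives peroxidase oxidation of dianisidine, read continuously at 450 nm. Activity is taken as the slope in the visually linear region.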
Chain of MetAP-2 (P50579 whole entry, species assumed): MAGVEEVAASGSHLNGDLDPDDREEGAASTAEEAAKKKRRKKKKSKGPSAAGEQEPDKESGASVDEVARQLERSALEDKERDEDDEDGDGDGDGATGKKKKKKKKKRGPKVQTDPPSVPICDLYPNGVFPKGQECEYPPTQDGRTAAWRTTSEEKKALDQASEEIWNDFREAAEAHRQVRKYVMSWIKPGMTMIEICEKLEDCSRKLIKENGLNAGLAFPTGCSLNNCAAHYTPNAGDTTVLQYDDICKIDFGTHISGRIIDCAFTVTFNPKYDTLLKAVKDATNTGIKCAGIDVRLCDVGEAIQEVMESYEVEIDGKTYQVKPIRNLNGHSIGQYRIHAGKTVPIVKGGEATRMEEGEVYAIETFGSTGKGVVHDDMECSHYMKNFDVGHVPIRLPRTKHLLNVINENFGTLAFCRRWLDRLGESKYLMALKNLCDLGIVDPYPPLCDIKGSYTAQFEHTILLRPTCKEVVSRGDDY
Consider `c1cc(OC[C@H]2CCCN2c2ncnc3[nH]cnc23)c2cc[nH]c2c1` [A40, 6-[(R)-2-(1H-lndol-4-yloxymethyl)pyrrolidin-1-yl]-9H-purine], for which the IC50 (as a rule, the concentration needed to halve the response being measured) was in the range of 1000 to 10000 nM.

Consider `Oc1ccc(OC[C@H]2CCCN2c2ncnc3[nH]c(F)nc23)c2ccccc12` [A147, 4-[(R)-1-(8-Fluoro-9H-purin-6-yl)pyrrolidin-2-yl-methoxy]naphthalen-1-ol], for which the IC50 was 1000 to 10000 nM.

On to `COc1ccc(CCOc2cc3c(OC[C@H]4CCCN4c4ncnc5[nH]cnc45)ccc(CCc4ccc(OC)cc4)c3cc2C(=O)N(C)C)cc1` [A152, N,N-Dimethyl-3-[2-(4-methoxyphenyl)ethoxy]-8-[2-(4-methoxyphenyl)ethyl]-5-[(R)-1-(9H-purin-6-yl)pyrrolidin-2-ylmethoxy]naphthalene-2-carboxamide], for which the IC50 is above 10000 nM.

On to `O=C1c2cccc(OC[C@H]3CCCN3c3ncnc4[nH]cnc34)c2CC[C@@H]1Cc1c[nH]cn1` [A96, (R)-2-(1H-Imidazol-4-ylmethyl)-5-[(R)-1-(9H-purin-6-yl)pyrrolidin-ylmethoxy]-3,4-dihydro-2H-naphthalen-1-one], for which the IC50 fell in the range of 10 to 1000 nM.

As for `c1ccc2c(OC[C@H]3CCCN3c3ncnc4[nH]cnc34)nccc2c1` [A109, 1-[(R)-1-(9H-Purin-6-yl)pyrrolidin-2-yl-methoxy]isoquinoline], the concentration for half-maximal inhibition (IC50) fell in the range of 10 to 1000 nM.

For `c1ccc2c(NCCCN3CCOCC3)ncc(OC[C@H]3CCCN3c3ncnc4[nH]cnc34)c2c1` [A178, (3-Morpholin-4-ylpropyl)-{4-[(R)-1-(9H-purin-6-yl)pyrrolidin-2-ylmethoxy]isoquinolin-1-yl}amine], the IC50 was in the range of 1000 to 10000 nM.

`O=C(CC1CCc2c(OC[C@H]3CCCN3c3ncnc4[nH]cnc34)cccc2C1=O)NCCO` (stereo partly drawn) [A180, N-(2-Hydroxyethyl)-2-{1-oxo-5-[(R)-1-(9H-purin-6-yl)pyrrolidin-2-ylmethoxy]-1,2,3,4-tetrahydro-naphthalen-2-yl}acetamide]: the IC50 lay in the range of 10 to 1000 nM.

Regarding `c1ccc2c(OC[C@H]3CCCN3c3ncnc4[nH]cnc34)ccc(CN3CCOCC3)c2c1` [A3, 6-[(R)-2-(4-morpholin-4-ylmethylnaphthalen-1-yloxymethyl)pyrrolidin-1-yl]-9H-purine], the IC50 was 10 to 1000 nM.

Turning to `CC(=O)Nc1nc2ccc(CNC(=O)Nc3cc(C(F)(F)F)ccc3OCC3CCCN3c3ncnc4[nH]cnc34)cc2[nH]1` (centres unmarked) [A33, N-[6-(3-{2-[1-(9H-Purin-6-yl)pyrrolidin-2-yl-methoxy]-5-trifluoromethylphenyl}ureido-methyl)-1H-benzimidazol-2-yl]acetamide], the IC50 was above 10000 nM.

`CCOC(=O)Cn1c(C(=O)OCC)c(OC[C@H]2CCCN2c2ncnc3[nH]cnc23)c2cc(F)ccc21` [A185, Ethyl 1-ethoxycarbonylmethyl-5-fluoro-3-[(R)-1-(9H-purin-6-yl)pyrrolidin-2-ylmethoxy]-1H-indole-2-carboxylate]: the IC50 is above 10000 nM.

Turning to `CCOC(=O)CCCCn1cnc2c(N3CCC[C@@H]3COc3cccc4ccc(O)cc34)ncnc21` [A136, Ethyl 5-{6-[(R)-2-(7-hydroxynaphthalen-1-yl-oxymethyl)pyrrolidin-1-yl]purin-9-yl}pentanoate], the IC50 is above 10000 nM.

Regarding `O=c1ccc(-c2cc(F)cc(F)c2)nn1CC1CCCN1c1ncnc2[nH]cnc12` (centres unmarked) [A32, 6-(3,5-Difluorophenyl)-2-[1-(9H-purin-6-yl)-pyrrolidin-2-ylmethyl]-2H-pyridazin-3-one], the IC50 is above 10000 nM.

Regarding `O=C1c2cccc(OC[C@H]3CCCN3c3ncnc4[nH]cnc34)c2CC[C@@H]1Cc1cc[nH]n1` [A129, (R)-5-[(R)-1-(9H-Purin-6-yl)pyrrolidin-2-yl-methoxy]-2-(1H-pyrazol-3-ylmethyl)-3,4-dihydro-2H-naphthalen-1-one], the IC50 fell in the range of 10 to 1000 nM.

As for `CN(C)CCCNc1ncc(OC[C@H]2CCCN2c2ncnc3[nH]cnc23)c2ccccc12` [A182], the IC50 fell in the range of 10 to 1000 nM.
